Assay results published in US12264156B2, “Compounds and pharmaceutical compositions thereof for the treatment of diseases” (GALAPAGOS NV, priority 2018, dated 2025).

Key:
Type in all cases: biochemical
Details in all cases: ADP-Glo SIK kinase assay
SIK3 = target: T1, SIK3 (Homo sapiens, UniProt Q9Y2K2); experiment: ADP-Glo kinase assay, SIK3
T1 construct: purchased SignalChem S12-11G-100
Outline: (§1)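 ADP-Glo luminescent assay of ADP formed by SIK2 or SIK3 with substrate after ATP addition, 120 min at RT. Remaining ATP depleted 40 min, then ADP converted to ATP and read by luciferase luminescence after 30 min. Controls: 1% DMSO and 10 μM staurosporine (final).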

SIK1 = target: T2, SIK1 (Homo sapiens, UniProt P57059); experiment: ADP-Glo kinase assay, SIK1
T2 construct: purchased Carna Biosciences 02-131
T2 sequence (P57059 whole entry): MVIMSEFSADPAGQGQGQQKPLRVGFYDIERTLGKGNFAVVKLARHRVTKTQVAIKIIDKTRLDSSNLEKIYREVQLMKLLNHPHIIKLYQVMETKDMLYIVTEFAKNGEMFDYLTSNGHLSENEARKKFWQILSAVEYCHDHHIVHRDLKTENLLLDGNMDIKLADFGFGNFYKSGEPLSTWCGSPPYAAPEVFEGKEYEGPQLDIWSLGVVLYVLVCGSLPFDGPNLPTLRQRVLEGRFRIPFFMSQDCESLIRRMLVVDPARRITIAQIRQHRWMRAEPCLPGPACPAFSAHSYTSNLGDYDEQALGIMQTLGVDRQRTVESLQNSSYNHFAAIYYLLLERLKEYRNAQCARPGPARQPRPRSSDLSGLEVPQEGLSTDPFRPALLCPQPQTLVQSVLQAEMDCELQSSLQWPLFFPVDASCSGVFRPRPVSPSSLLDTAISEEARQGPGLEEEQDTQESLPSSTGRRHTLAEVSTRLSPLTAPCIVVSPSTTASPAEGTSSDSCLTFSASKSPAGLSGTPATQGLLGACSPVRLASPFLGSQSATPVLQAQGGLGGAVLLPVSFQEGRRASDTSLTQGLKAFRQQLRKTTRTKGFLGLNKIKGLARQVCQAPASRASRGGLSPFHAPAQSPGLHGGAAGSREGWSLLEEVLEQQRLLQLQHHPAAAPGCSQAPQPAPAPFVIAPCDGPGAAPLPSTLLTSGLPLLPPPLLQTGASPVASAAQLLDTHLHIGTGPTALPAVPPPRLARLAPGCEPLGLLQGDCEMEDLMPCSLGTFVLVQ
Outline: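 Wells with 1% DMSO or 10 μM staurosporine (final) define the control window. The kinase reaction with substrate and ATP runs 120 min at RT, followed by ADP-Glo detection: ATP depletion (40 min) and ADP-derived luminescence (30 min).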

SIK2 = target: T3, SIK2 (Homo sapiens, UniProt Q9H0K1); experiment: ADP-Glo kinase assay, SIK2
T3 construct: purchased ThermoFisher Scientific PV4792
T3 sequence (Q9H0K1 whole entry): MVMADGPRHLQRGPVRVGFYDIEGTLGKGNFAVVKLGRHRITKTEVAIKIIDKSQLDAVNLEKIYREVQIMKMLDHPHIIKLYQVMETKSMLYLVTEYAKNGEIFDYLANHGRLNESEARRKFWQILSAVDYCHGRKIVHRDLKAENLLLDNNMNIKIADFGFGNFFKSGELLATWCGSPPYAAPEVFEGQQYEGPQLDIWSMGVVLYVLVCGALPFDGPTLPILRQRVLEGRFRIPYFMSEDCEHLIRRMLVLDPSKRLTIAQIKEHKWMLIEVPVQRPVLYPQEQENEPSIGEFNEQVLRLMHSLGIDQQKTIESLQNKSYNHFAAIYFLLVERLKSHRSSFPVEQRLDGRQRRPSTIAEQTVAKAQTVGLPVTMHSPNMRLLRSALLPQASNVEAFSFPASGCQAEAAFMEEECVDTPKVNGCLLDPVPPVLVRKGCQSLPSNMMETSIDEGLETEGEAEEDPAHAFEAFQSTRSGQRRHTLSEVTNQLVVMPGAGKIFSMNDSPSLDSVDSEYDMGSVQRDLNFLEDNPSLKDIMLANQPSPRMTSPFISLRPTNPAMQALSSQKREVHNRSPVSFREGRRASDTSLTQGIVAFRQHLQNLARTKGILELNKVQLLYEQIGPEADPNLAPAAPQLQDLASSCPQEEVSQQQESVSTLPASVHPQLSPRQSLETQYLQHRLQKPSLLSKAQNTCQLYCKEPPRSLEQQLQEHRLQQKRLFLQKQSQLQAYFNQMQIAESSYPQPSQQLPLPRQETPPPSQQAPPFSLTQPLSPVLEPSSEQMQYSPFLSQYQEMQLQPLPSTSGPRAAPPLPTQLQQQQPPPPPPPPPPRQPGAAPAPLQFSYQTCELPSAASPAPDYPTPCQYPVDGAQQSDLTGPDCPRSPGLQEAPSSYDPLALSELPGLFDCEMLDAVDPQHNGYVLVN
Outline: as §1

T1 sequence (Q9Y2K2 whole entry): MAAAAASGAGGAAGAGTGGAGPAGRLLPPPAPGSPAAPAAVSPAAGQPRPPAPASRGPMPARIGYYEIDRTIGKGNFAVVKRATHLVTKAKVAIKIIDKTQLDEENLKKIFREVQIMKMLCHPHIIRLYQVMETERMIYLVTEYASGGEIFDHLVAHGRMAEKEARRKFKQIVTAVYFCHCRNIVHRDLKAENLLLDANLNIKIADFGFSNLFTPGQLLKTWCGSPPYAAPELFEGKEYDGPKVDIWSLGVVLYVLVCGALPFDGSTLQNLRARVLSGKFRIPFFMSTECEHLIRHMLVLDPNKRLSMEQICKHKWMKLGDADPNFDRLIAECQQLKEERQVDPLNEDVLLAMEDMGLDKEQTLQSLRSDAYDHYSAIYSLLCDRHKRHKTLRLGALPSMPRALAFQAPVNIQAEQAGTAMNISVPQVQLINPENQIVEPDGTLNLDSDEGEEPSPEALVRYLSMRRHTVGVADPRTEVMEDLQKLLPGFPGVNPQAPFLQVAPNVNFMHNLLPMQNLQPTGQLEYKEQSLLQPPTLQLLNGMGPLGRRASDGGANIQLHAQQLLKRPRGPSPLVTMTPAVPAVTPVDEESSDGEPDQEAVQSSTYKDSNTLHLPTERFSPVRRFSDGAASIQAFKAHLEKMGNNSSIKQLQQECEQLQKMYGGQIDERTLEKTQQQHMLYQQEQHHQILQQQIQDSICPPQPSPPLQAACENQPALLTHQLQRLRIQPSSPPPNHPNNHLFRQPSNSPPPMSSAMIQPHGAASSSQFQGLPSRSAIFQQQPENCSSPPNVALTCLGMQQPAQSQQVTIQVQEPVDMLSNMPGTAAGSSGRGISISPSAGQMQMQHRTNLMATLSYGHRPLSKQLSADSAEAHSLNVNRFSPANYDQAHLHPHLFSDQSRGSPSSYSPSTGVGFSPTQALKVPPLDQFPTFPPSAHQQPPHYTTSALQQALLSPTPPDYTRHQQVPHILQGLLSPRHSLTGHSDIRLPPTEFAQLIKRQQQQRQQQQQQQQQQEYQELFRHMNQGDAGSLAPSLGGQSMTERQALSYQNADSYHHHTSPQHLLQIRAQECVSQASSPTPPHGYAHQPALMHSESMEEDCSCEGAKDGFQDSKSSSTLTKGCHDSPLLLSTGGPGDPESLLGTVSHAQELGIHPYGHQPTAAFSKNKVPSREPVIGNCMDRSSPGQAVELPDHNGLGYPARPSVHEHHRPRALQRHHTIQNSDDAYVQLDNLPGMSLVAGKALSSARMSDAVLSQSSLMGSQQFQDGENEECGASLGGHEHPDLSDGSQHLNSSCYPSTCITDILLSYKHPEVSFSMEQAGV

Compound	IC50 (SIK3) [nM]	IC50 (SIK1) [nM]	IC50 (SIK2) [nM]
COc1cc(-c2cnc3cc(OC[C@H]4CCN(C5COC5)C4)ccn23)cc(OC(F)F)c1C(=O)NC1CC1 [compound 317, N-cyclopropyl-2-(difluoromethoxy)-6-methoxy-4-[7-[[(3S)-1-(oxetan-3-yl)pyrrolidin-3-yl]methoxy]imidazo[1,2-a]pyridin-3-yl]benzamide]	0.01 to 10	10 to 100	0.01 to 10
COc1cc(-c2cnc3cc(OC[C@H]4CCCN(C5COC5)C4)ccn23)cc(OC(F)F)c1C(=O)NC1CC1 [compound 318, N-cyclopropyl-2-(difluoromethoxy)-6-methoxy-4-[7-[[(3S)-1-(oxetan-3-yl)-3-piperidyl]methoxy]imidazo[1,2-a]pyridin-3-yl]benzamide]	0.01 to 10	0.01 to 10	0.01 to 10
COc1cc(-c2cnc3cc(OCCCN4CCc5nc(C)sc5C4)ccn23)cc(OC(F)F)c1C(=O)NC1CC1 [compound 320, N-cyclopropyl-2-(difluoromethoxy)-6-methoxy-4-[7-[3-(2-methyl-6,7-dihydro-4H-thiazolo[5,4-c]pyridin-5-yl)propoxy]imidazo[1,2-a]pyridin-3-yl]benzamide]	0.01 to 10	10 to 100	0.01 to 10
COc1cc(-c2cnc3cc(OCCCN4CCC(N(C)S(C)(=O)=O)CC4)ccn23)cc(OC(F)F)c1C(=O)NC1CC1 [compound 326, N-cyclopropyl-2-(difluoromethoxy)-6-methoxy-4-[7-[3-[4-[methyl(methylsulfonyl)amino]-1-piperidyl]propoxy]imidazo[1,2-a]pyridin-3-yl]benzamide]	0.01 to 10	10 to 100	0.01 to 10
COc1cc(-c2cnc3cc(OCCCN4CC5(CCS5(=O)=O)C4)ccn23)cc(OC(F)F)c1C(=O)NC1CC1 [compound 332, N-cyclopropyl-2-(difluoromethoxy)-4-[7-[3-(1,1-dioxo-1λ^6-thia-6-azaspiro[3.3]heptan-6-yl)propoxy]imidazo[1,2-a]pyridin-3-yl]-6-methoxy-benzamide]	0.01 to 10	10 to 100	0.01 to 10
COc1cc(-c2cnc3cc(OC[C@@H]4CCN(C5COC5)C4)ccn23)cc(OC(F)F)c1C(=O)NC1CC1 [compound 336, N-cyclopropyl-2-(difluoromethoxy)-6-methoxy-4-[7-[[(3R)-1-(oxetan-3-yl)pyrrolidin-3-yl]methoxy]imidazo[1,2-a]pyridin-3-yl]benzamide]	0.01 to 10	10 to 100	0.01 to 10
COc1cc(-c2cnc3cc(OC[C@@H]4CCCN(C5COC5)C4)ccn23)cc(OC(F)F)c1C(=O)NC1CC1 [compound 339, N-cyclopropyl-2-(difluoromethoxy)-6-methoxy-4-[7-[[(3R)-1-(oxetan-3-yl)-3-piperidyl]methoxy]imidazo[1,2-a]pyridin-3-yl]benzamide]	0.01 to 10	10 to 100	0.01 to 10
COc1cc(-c2cnc3cc(OCCCN4CCCC(C#N)C4)ccn23)cc(OC(F)F)c1C(=O)NC1CC1 (stereo not drawn) [compound 346, 4-[7-[3-(3-cyano-1-piperidyl)propoxy]imidazo [1,2-a]pyridin-3-yl]-N-cyclopropyl-2-(difluoromethoxy)-6-methoxy-benzamide]	0.01 to 10	10 to 100	0.01 to 10
COc1cc(-c2cnc3cc(OCCCN4CCC(S(C)(=O)=O)CC4)ccn23)cc(OC(F)F)c1C(=O)NC1CC1 [compound 347, N-cyclopropyl-2-(difluoromethoxy)-6-methoxy-4-[7-[3-(4-methylsulfonyl-1-piperidyl)propoxy]imidazo[1,2-a]pyridin-3-yl]benzamide]	0.01 to 10	10 to 100	0.01 to 10
COc1cc(-c2cnc3cc(OC[C@H]4CCN(CCC#N)C4)ccn23)cc(OC(F)F)c1C(=O)NC1CC1 [compound 350, 4-[7-[[(3S)-1-(2-cyanoethyl)pyrrolidin-3-yl]methoxy]imidazo[1,2-a]pyridin-3-yl]-N-cyclopropyl-2-(difluoromethoxy)-6-methoxy-benzamide]	0.01 to 10	10 to 100	0.01 to 10
COc1cc(-c2cnc3cc(OC[C@H]4CCCN(CCC#N)C4)ccn23)cc(OC(F)F)c1C(=O)NC1CC1 [compound 351, 4-[7-[[(3S)-1-(2-cyanoethyl)-3-piperidyl]methoxy]imidazo [1,2-a]pyridin-3-yl]-N-cyclopropyl-2-(difluoromethoxy)-6-methoxy-benzamide]	0.01 to 10	0.01 to 10	0.01 to 10
COc1cc(-c2cnc3cc(OCCCN4[C@H](C)CCC[C@@H]4C)ccn23)cc(OC(F)F)c1C(=O)NC1CC1 [compound 352, N-cyclopropyl-2-(difluoromethoxy)-4-[7-[3-[(2R,6S)-2,6-dimethyl-1-piperidyl]propoxy]imidazo [1,2-a]pyridin-3-yl]-6-methoxy-benzamide]	0.01 to 10	0.01 to 10	0.01 to 10
COc1cc(-c2cnc3cc(OCCCN4CCCCC4)ccn23)cc(OC(F)F)c1C(=O)N1CC(O)(CC#N)C1 [compound 355, 2-[1-[2-(difluoromethoxy)-6-methoxy-4-[7-[3-(1-piperidyl)propoxy]imidazo[1,2-a]pyridin-3-yl]benzoyl]-3-hydroxy-azetidin-3-yl]acetonitrile]	100 to 500	100 to 500	10 to 100
COc1cc(-c2cnc3cc(OCC(F)(F)CN)ccn23)cc(OC(F)F)c1C(=O)NC1CC1 [compound 364, 4-[7-(3-amino-2,2-difluoro-propoxy)imidazo[1,2-a]pyridin-3-yl]-N-cyclopropyl-2-(difluoromethoxy)-6-methoxy-benzamide]	0.01 to 10	10 to 100	0.01 to 10
COc1cc(-c2cnc3cc(OCCNc4ccccn4)ccn23)cc(OC(F)F)c1C(=O)NC1CC1 [compound 367, N-cyclopropyl-2-(difluoromethoxy)-6-methoxy-4-[7-[2-(2-pyridylamino)ethoxy]imidazo[1,2-a]pyridin-3-yl]benzamide]	0.01 to 10	0.01 to 10	0.01 to 10
COc1cc(-c2cnc3cc(OCCNc4ncccn4)ccn23)cc(OC(F)F)c1C(=O)NC1CC1 [compound 368, N-cyclopropyl-2-(difluoromethoxy)-6-methoxy-4-[7-[2-(pyrimidin-2-ylamino)ethoxy]imidazo [1,2-a]pyridin-3-yl]benzamide]	0.01 to 10	0.01 to 10	0.01 to 10
COc1cc(-c2cnc3cc(OCCNc4ccncn4)ccn23)cc(OC(F)F)c1C(=O)NC1CC1 [compound 369, N-cyclopropyl-2-(difluoromethoxy)-6-methoxy-4-[7-[2-(pyrimidin-4-ylamino)ethoxy]imidazo [1,2-a]pyridin-3-yl]benzamide]	0.01 to 10	0.01 to 10	0.01 to 10
COc1cc(-c2cnc3cc(OCC(O)CN4CC[C@@H](O)C4)ccn23)cc(OC(F)F)c1C(=O)NC1CC1 (stereo partly drawn) [compound 376, N-cyclopropyl-2-(difluoromethoxy)-4-[7-[2-hydroxy-3-[(3R)-3-hydroxypyrrolidin-1-yl]propoxy]imidazo[1,2-a]pyridin-3-yl]-6-methoxy-benzamide]	0.01 to 10	10 to 100	0.01 to 10
COC(=O)[C@@H]1CN(CCOc2ccn3c(-c4cc(OC)c(C(=O)NC5CC5)c(OC(F)F)c4)cnc3c2)CCO1 [compound 389, methyl (2S)-4-[2-[3-[4-(cyclopropylcarbamoyl)-3-(difluoromethoxy)-5-methoxy-phenyl]imidazo[1,2-a]pyridin-7-yl]oxyethyl]morpholine-2-carboxylate]	0.01 to 10	10 to 100	0.01 to 10
COc1cc(-c2cnc3cc(OCCCN4CC(C(=O)OC(C)(C)C)C4)ccn23)cc(OC(F)F)c1C(=O)NC1CC1 [compound 391, tert-butyl 1-[3-[3-[4-(cyclopropylcarbamoyl)-3-(difluoromethoxy)-5-methoxy-phenyl]imidazo[1,2-a]pyridin-7-yl]oxypropyl]azetidine-3-carboxylate]	0.01 to 10	10 to 100	0.01 to 10
CCOC(=O)C1CCCN(CCOc2ccn3c(-c4cc(OC)c(C(=O)NC5CC5)c(OC(F)F)c4)cnc3c2)C1 (stereo not drawn) [compound 392, ethyl 1-[2-[3-[4-(cyclopropylcarbamoyl)-3-(difluoromethoxy)-5-methoxy-phenyl]imidazo[1,2-a]pyridin-7-yl]oxyethyl]piperidine-3-carboxylate]	0.01 to 10	10 to 100	0.01 to 10
COC(=O)C1CN(CCOc2ccn3c(-c4cc(OC)c(C(=O)NC5CC5)c(OC(F)F)c4)cnc3c2)C1 [compound 393, methyl 1-[2-[3-[4-(cyclopropylcarbamoyl)-3-(difluoromethoxy)-5-methoxy-phenyl]imidazo[1,2-a]pyridin-7-yl]oxyethyl]azetidine-3-carboxylate]	0.01 to 10	10 to 100	0.01 to 10
CCOC(=O)C1CCCN(CCCOc2ccn3c(-c4cc(OC)c(C(=O)NC5CC5)c(OC(F)F)c4)cnc3c2)C1 (stereo not drawn) [compound 395, ethyl 1-[3-[3-[4-(cyclopropylcarbamoyl)-3-(difluoromethoxy)-5-methoxy-phenyl]imidazo[1,2-a]pyridin-7-yl]oxypropyl]piperidine-3-carboxylate]	0.01 to 10	10 to 100	0.01 to 10
